Results on two molecules are retold here after patent US20110044907A1, “IN VIVO SCREENING ASSAYS” (priority 2009, published 2011).

Where a name gives a salt, the structure may show the parent alone.

One experiment has as its system BxPC-3-GFP tumor cells. The experiment can be described thus: Surgical orthotopic implantation of BxPC-3-GFP pancreatic tumor cells in nude mice. The experiment is classed as in vivo, mouse. The note with it: female NCr nu/nu mice; AB0023 30 mg/kg IP twice per week 6 weeks; Gemzar 200 mg/kg IP once per week 3 weeks. On the procedure: Tumor formation and metastasis are monitored by fluorescence imaging.
Approximately 75 female nude mice (NCr nu/nu), 5-6 weeks old, are anesthetized by intraperitoneal injection of a solution of 100 mg/kg ketamine and 5 mg/kg xylazine. Under anesthesia, BxPC-3-GFP tumor cells are surgically implanted, by suturing into the pancreas. […] Each group contains 15 animals, and all administrations are intraperitoneal.
Body weight is determined once per week.
At the conclusion of the study, blood is collected by cardiac puncture and one ml is used for preparation of serum.
The other half is snap frozen for RNA isolation.

In experiment [1] the test system is MDA-MB-231-luc-D3H2LN cells. The experiment is described as follows: Breast tumor metastasis model, intracardiac injection, bioluminescent imaging. To be noted: AB0023 30 mg/kg IP twice per week; taxol 5 mg/kg daily. The experiment is classed as in vivo, mouse. The method, then: In this model system, MDA-MB-231-luc-D3H2LN cells (Caliper Life Sciences, Hopkinton, Mass.), a derivative of a human breast cancer cell line that has been stably transfected with a luciferase gene were introduced into female nude mice by intracardiac injection. The cells are disseminated through the circulation, and the occurrence and location of metastases are determined by in vivo bioluminescent imaging (BLI).
Approximately 80 female nude mice (NCr nu/nu), 8-10 weeks old, were anesthetized by intraperitoneal injection of a solution of 100 mg/kg ketamine and 5 mg/kg xylazine. […] Bioluminescence from whole body and lung projection was measured and expressed as photons per second. If the ratio of whole body luminescence to lung luminescence was less than 3, the mouse was excluded from the study. […]
Ventral and dorsal views of the animals were obtained by in vivo bioluminescent imaging (BLI) on days 0, 7, 10, 13, 16, 21, 24 AND 28; using the IVIS®-Spectrum imaging system (Caliper Life Sciences, Hopkinton, Mass.). Data were analyzed using Living Image 3.0 Software (Caliper Life Sciences, Hopkinton, Mass.).
Body weight was measured once per week for the first two weeks of the study, then three times per week until the conclusion of the study. […]

Regarding `Nc1ccn([C@@H]2O[C@H](CO)[C@@H](O)C2(F)F)c(=O)n1` [Gemzar, gemcitabine-HCl], the mean tumor volume entry with BxPC-3-GFP tumor cells is “reduced”. Regarding `CC(=O)O[C@H]1C(=O)[C@@]2(C)[C@H]([C@H](OC(=O)c3ccccc3)[C@]3(O)C[C@H](OC(=O)[C@H](O)[C@@H](NC(=O)c4ccccc4)c4ccccc4)C(C)=C1C3(C)C)[C@]1(OC(C)=O)CO[C@@H]1C[C@@H]2O` [taxol], the “survival advantage compared to vehicle-treated animals” value in experiment [1] is on record as “not observed”.
